SMILES strings stand for the structures.

The test system of one experiment is late watergrass. The experiment can be described thus: Test Example 1: herbicidal activity, application before weed generation under submerged conditions (Table 16, symbol A). Format: in vivo, late watergrass (Echinochloa oryzicola). As to conditions: 320 g/ha applied herbicide. The method, boiled down: (§1)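 Emulsion formulation, water-diluted to set dose, was put onto the flooded surface (4 cm depth, alluvial soil) the same day weeds were sown and 2.5-leaf rice transplanted. After 3 weeks at 25-30 °C under glass, each species was rated 0 (≤5% kill) to 5 (≥90% kill).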
Consider `CSCCOc1ccc(-c2sc3ccccc3c2-c2c(O)c(C)nn(C)c2=O)cc1` [1-141], for which the “Herbicidal effect on A: late watergrass (grade 0-5)” value is 3 (Herbicidal rate of 40% or more and less than 70%).

Take `Cc1nn(C)c(=O)c(-c2c(-c3ccc(OCC4CC4)cc3)sc3ccccc23)c1O` [1-142]: the “Herbicidal effect on A: late watergrass (grade 0-5)” value is 3 (Herbicidal rate of 40% or more and less than 70%).

The subject of the next experiment is Japanese bulrush. The experiment can be described thus: Test Example 1: herbicidal activity, application before weed generation under submerged conditions (Table 16, symbol B). The note with it: 320 g/ha applied herbicide. Format: in vivo, Japanese bulrush (Schoenoplectus juncoides). Summed up: as §1
Take `CSCCOc1ccc(-c2sc3ccccc3c2-c2c(O)c(C)nn(C)c2=O)cc1` [1-141]: the “Herbicidal effect on B: Japanese bulrush (grade 0-5)” value was 0 (Herbicidal rate of 5% or less (almost no effect)).

In the case of `Cc1nn(C)c(=O)c(-c2c(-c3ccc(OCC4CC4)cc3)sc3ccccc23)c1O` [1-142], the “Herbicidal effect on B: Japanese bulrush (grade 0-5)” value was 5 (Herbicidal rate of 90% or more (almost completely withered)).

The test system of another experiment is oval-leafed pondweed. Kind of experiment: Test Example 1: herbicidal activity, application before weed generation under submerged conditions (Table 16, symbol C). In kind it is in vivo, oval-leafed pondweed (Monochoria vaginalis). The note with it: 320 g/ha applied herbicide. Summed up:
as §1
Regarding `CSCCOc1ccc(-c2sc3ccccc3c2-c2c(O)c(C)nn(C)c2=O)cc1` [1-141], the “Herbicidal effect on C: oval-leafed pondweed (grade 0-5)” value is given as 0 (Herbicidal rate of 5% or less (almost no effect)).

For `Cc1nn(C)c(=O)c(-c2c(-c3ccc(OCC4CC4)cc3)sc3ccccc23)c1O` [1-142], the “Herbicidal effect on C: oval-leafed pondweed (grade 0-5)” value is recorded as 5 (Herbicidal rate of 90% or more (almost completely withered)).

The next experiment has as its system barnyard grass. The experiment can be described thus: Test Example 3: herbicidal effect by foliage application, Wagner pot (Table 18, symbol H). Format: in vivo, barnyard grass (Echinochloa crus-galli). As to conditions: 320 g/ha. The method, boiled down:
(§2)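 Plants were sown in alluvial soil held under 0.1–0.5 cm standing water and grown 14 days in a greenhouse at 25–30 °C. An emulsifiable formulation, water-diluted to the set dose, was then sprayed onto the foliage, and effects were scored three weeks later using previously defined criteria.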
For `CSCCOc1ccc(-c2sc3ccccc3c2-c2c(O)c(C)nn(C)c2=O)cc1` [1-141], the “herbicidal effect on H (barnyard grass), rating 0-5” value is 5 (Herbicidal rate of 90% or more (almost completely withered)).

Turning to `Cc1nn(C)c(=O)c(-c2c(-c3ccc(OCC4CC4)cc3)sc3ccccc23)c1O` [1-142], the “herbicidal effect on H (barnyard grass), rating 0-5” value was 3 (Herbicidal rate of 40% or more and less than 70%).

A further experiment concerns Chinese sprangletop. The experiment can be described thus: Test Example 3: herbicidal effect by foliage application, Wagner pot (Table 18, symbol D). In kind it is in vivo, chinese sprangletop (Leptochloa chinensis). The note with it: 320 g/ha. Summed up:
as §2
As for `CSCCOc1ccc(-c2sc3ccccc3c2-c2c(O)c(C)nn(C)c2=O)cc1` [1-141], the “herbicidal effect on D (Chinese sprangletop), rating 0-5” value is 3 (Herbicidal rate of 40% or more and less than 70%).

Take `Cc1nn(C)c(=O)c(-c2c(-c3ccc(OCC4CC4)cc3)sc3ccccc23)c1O` [1-142]: the “herbicidal effect on D (Chinese sprangletop), rating 0-5” value was 1 (Herbicidal rate of 5% or more and less than 20%).

In a further experiment the test system is rice flat sedge. Kind of experiment: Test Example 3: herbicidal effect by foliage application, Wagner pot (Table 18, symbol E). In kind it is in vivo, rice flat sedge (Cyperus iria). The note with it: 320 g/ha. Summed up:
as §2
`CSCCOc1ccc(-c2sc3ccccc3c2-c2c(O)c(C)nn(C)c2=O)cc1` [1-141]: the “herbicidal effect on E (rice flat sedge), rating 0-5” value is 5 (Herbicidal rate of 90% or more (almost completely withered)).

In the case of `Cc1nn(C)c(=O)c(-c2c(-c3ccc(OCC4CC4)cc3)sc3ccccc23)c1O` [1-142], the “herbicidal effect on E (rice flat sedge), rating 0-5” value was 5 (Herbicidal rate of 90% or more (almost completely withered)).

The subject of another experiment is Italian ryegrass. Kind of experiment: Test Example 4: herbicidal effect by soil treatment (Table 19, symbol K). In kind it is in vivo, Italian ryegrass (Lolium multiflorum). The note with it: AAH 320 g/ha. Summed up:
(§3)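 Applied as a water-diluted emulsion, the compound was sprayed onto soil covering newly sown seeds. Evaluation came three weeks after application, in a greenhouse held at 25° C. to 30° C.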
Take `CSCCOc1ccc(-c2sc3ccccc3c2-c2c(O)c(C)nn(C)c2=O)cc1` [1-141]: the “K: Italian ryegrass, herbicidal effect rating” value was 5 (Herbicidal rate of 90% or more (almost completely withered)).

With `Cc1nn(C)c(=O)c(-c2c(-c3ccc(OCC4CC4)cc3)sc3ccccc23)c1O` [1-142], the “K: Italian ryegrass, herbicidal effect rating” value is listed as 0 (Herbicidal rate of 5% or less (almost no effect)).

For the next experiment, the system named is windgrass. The experiment can be described thus: Test Example 4: herbicidal effect by soil treatment (Table 19, symbol L). Format: in vivo, windgrass (Apera spica-venti). As to conditions: AAH 320 g/ha. Summed up: as §3
Take `CSCCOc1ccc(-c2sc3ccccc3c2-c2c(O)c(C)nn(C)c2=O)cc1` [1-141]: the “L: windgrass, herbicidal effect rating” value was 3 (Herbicidal rate of 40% or more and less than 70%).

On to `Cc1nn(C)c(=O)c(-c2c(-c3ccc(OCC4CC4)cc3)sc3ccccc23)c1O` [1-142], for which the “L: windgrass, herbicidal effect rating” value is 0 (Herbicidal rate of 5% or less (almost no effect)).

In a further experiment the test system is lambsquarters. Kind of experiment: Test Example 4: herbicidal effect by soil treatment (Table 19, symbol O). In kind it is in vivo, lambsquarters (Chenopodium album). As to conditions: AAH 320 g/ha. Summed up:
as §3
For the compound `CSCCOc1ccc(-c2sc3ccccc3c2-c2c(O)c(C)nn(C)c2=O)cc1` [1-141], the “O: lambsquarters, herbicidal effect rating” value is on record as 5 (Herbicidal rate of 90% or more (almost completely withered)).

As for `Cc1nn(C)c(=O)c(-c2c(-c3ccc(OCC4CC4)cc3)sc3ccccc23)c1O` [1-142], the “O: lambsquarters, herbicidal effect rating” value is reported as 5 (Herbicidal rate of 90% or more (almost completely withered)).

The test system of a further experiment is chickweed. The experiment can be described thus: Test Example 4: herbicidal effect by soil treatment (Table 19, symbol P). Format: in vivo, common chickweed (Stellaria media). The note with it: AAH 320 g/ha. The method, boiled down:
as §3
Consider `CSCCOc1ccc(-c2sc3ccccc3c2-c2c(O)c(C)nn(C)c2=O)cc1` [1-141], for which the “P: chickweed, herbicidal effect rating” value was 4 (Herbicidal rate of 70% or more and less than 90%).

As for `Cc1nn(C)c(=O)c(-c2c(-c3ccc(OCC4CC4)cc3)sc3ccccc23)c1O` [1-142], the “P: chickweed, herbicidal effect rating” value is 2 (Herbicidal rate of 20% or more and less than 40%).

The next experiment relates to persian speedwell. The experiment can be described thus: Test Example 4: herbicidal effect by soil treatment (Table 19, symbol R). Format: in vivo, Persian speedwell (Veronica persica). As to conditions: AAH 320 g/ha. Summed up:
as §3
For `CSCCOc1ccc(-c2sc3ccccc3c2-c2c(O)c(C)nn(C)c2=O)cc1` [1-141], the “R: persian speedwell, herbicidal effect rating” value is reported as 5 (Herbicidal rate of 90% or more (almost completely withered)).

On to `Cc1nn(C)c(=O)c(-c2c(-c3ccc(OCC4CC4)cc3)sc3ccccc23)c1O` [1-142], for which the “R: persian speedwell, herbicidal effect rating” value is recorded as 5 (Herbicidal rate of 90% or more (almost completely withered)).

For another experiment, the system named is southern crabgrass. Kind of experiment: Test Example 5: herbicidal effect by foliage application, plastic box (Table 20, symbol F). As to conditions: foliage application, AAH 320 g/ha, three weeks after application. Format: in vivo, southern crabgrass (Digitaria ciliaris). Summed up: (§4)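 Sow seeds spot-wise in sterilized diluvial soil; cover with ~1.5 cm soil. Grow 14 days in greenhouse, 25° C. to 30° C. Spray foliage with emulsion diluted to predetermined amount. Rate effect after 3 weeks.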
With `CSCCOc1ccc(-c2sc3ccccc3c2-c2c(O)c(C)nn(C)c2=O)cc1` [1-141], the “F: southern crabgrass, herbicidal effect” value is 5 (Herbicidal rate of 90% or more (almost completely withered)).

With `Cc1nn(C)c(=O)c(-c2c(-c3ccc(OCC4CC4)cc3)sc3ccccc23)c1O` [1-142], the “F: southern crabgrass, herbicidal effect” value was 1 (Herbicidal rate of 5% or more and less than 20%).

The test system of a further experiment is barnyard grass. The experiment can be described thus: Test Example 5: herbicidal effect by foliage application, plastic box (Table 20, symbol H). Format: in vivo, barnyard grass (Echinochloa crus-galli). The note with it: foliage application, AAH 320 g/ha, three weeks after application. Summed up: as §4
Regarding `CSCCOc1ccc(-c2sc3ccccc3c2-c2c(O)c(C)nn(C)c2=O)cc1` [1-141], the “H: barnyard grass, herbicidal effect” value was 5 (Herbicidal rate of 90% or more (almost completely withered)).

As to `Cc1nn(C)c(=O)c(-c2c(-c3ccc(OCC4CC4)cc3)sc3ccccc23)c1O` [1-142], the “H: barnyard grass, herbicidal effect” value is 3 (Herbicidal rate of 40% or more and less than 70%).

A further experiment relates to wild oat. Kind of experiment: Test Example 5: herbicidal effect by foliage application, plastic box (Table 20, symbol I). Format: in vivo, wild oat (Avena fatua). The note with it: foliage application, AAH 320 g/ha, three weeks after application. The method, boiled down: as §4
Take `CSCCOc1ccc(-c2sc3ccccc3c2-c2c(O)c(C)nn(C)c2=O)cc1` [1-141]: the “I: wild oat, herbicidal effect” value was 5 (Herbicidal rate of 90% or more (almost completely withered)).

Turning to `Cc1nn(C)c(=O)c(-c2c(-c3ccc(OCC4CC4)cc3)sc3ccccc23)c1O` [1-142], the “I: wild oat, herbicidal effect” value was 0 (Herbicidal rate of 5% or less (almost no effect)).

The subject of a further experiment is blackgrass. The experiment can be described thus: Test Example 5: herbicidal effect by foliage application, plastic box (Table 20, symbol J). Format: in vivo, blackgrass (Alopecurus myosuroides). As to conditions: foliage application, AAH 320 g/ha, three weeks after application. Summed up:
as §4
As to `CSCCOc1ccc(-c2sc3ccccc3c2-c2c(O)c(C)nn(C)c2=O)cc1` [1-141], the “J: blackgrass, herbicidal effect” value is reported as 5 (Herbicidal rate of 90% or more (almost completely withered)).

Regarding `Cc1nn(C)c(=O)c(-c2c(-c3ccc(OCC4CC4)cc3)sc3ccccc23)c1O` [1-142], the “J: blackgrass, herbicidal effect” value is 0 (Herbicidal rate of 5% or less (almost no effect)).

For another experiment, the system named is windgrass. The experiment can be described thus: Test Example 5: herbicidal effect by foliage application, plastic box (Table 20, symbol L). In kind it is in vivo, windgrass (Apera spica-venti). The note with it: foliage application, AAH 320 g/ha, three weeks after application. Summed up: as §4
For `CSCCOc1ccc(-c2sc3ccccc3c2-c2c(O)c(C)nn(C)c2=O)cc1` [1-141], the “L: windgrass, herbicidal effect” value was 5 (Herbicidal rate of 90% or more (almost completely withered)).

For `Cc1nn(C)c(=O)c(-c2c(-c3ccc(OCC4CC4)cc3)sc3ccccc23)c1O` [1-142], the “L: windgrass, herbicidal effect” value was 1 (Herbicidal rate of 5% or more and less than 20%).

Another experiment concerns velvetleaf. The experiment can be described thus: Test Example 5: herbicidal effect by foliage application, plastic box (Table 20, symbol M). In kind it is in vivo, velvetleaf (Abutilon theophrasti). As to conditions: foliage application, AAH 320 g/ha, three weeks after application. The method, boiled down: as §4
As to `CSCCOc1ccc(-c2sc3ccccc3c2-c2c(O)c(C)nn(C)c2=O)cc1` [1-141], the “M: velvetleaf, herbicidal effect” value is 4 (Herbicidal rate of 70% or more and less than 90%).

As for `Cc1nn(C)c(=O)c(-c2c(-c3ccc(OCC4CC4)cc3)sc3ccccc23)c1O` [1-142], the “M: velvetleaf, herbicidal effect” value was 1 (Herbicidal rate of 5% or more and less than 20%).

The subject of a further experiment is redroot pigweed. Kind of experiment: Test Example 5: herbicidal effect by foliage application, plastic box (Table 20, symbol N). In kind it is in vivo, redroot pigweed (Amaranthus retroflexus). The note with it: foliage application, AAH 320 g/ha, three weeks after application. The method, boiled down: as §4
Take `CSCCOc1ccc(-c2sc3ccccc3c2-c2c(O)c(C)nn(C)c2=O)cc1` [1-141]: the “N: redroot pigweed, herbicidal effect” value was 5 (Herbicidal rate of 90% or more (almost completely withered)).

For the compound `Cc1nn(C)c(=O)c(-c2c(-c3ccc(OCC4CC4)cc3)sc3ccccc23)c1O` [1-142], the “N: redroot pigweed, herbicidal effect” value is 2 (Herbicidal rate of 20% or more and less than 40%).

Another experiment deals with chickweed. Kind of experiment: Test Example 5: herbicidal effect by foliage application, plastic box (Table 20, symbol P). Format: in vivo, common chickweed (Stellaria media). The note with it: foliage application, AAH 320 g/ha, three weeks after application. Summed up: as §4
`CSCCOc1ccc(-c2sc3ccccc3c2-c2c(O)c(C)nn(C)c2=O)cc1` [1-141]: the “P: chickweed, herbicidal effect” value is 5 (Herbicidal rate of 90% or more (almost completely withered)).

On to `Cc1nn(C)c(=O)c(-c2c(-c3ccc(OCC4CC4)cc3)sc3ccccc23)c1O` [1-142], for which the “P: chickweed, herbicidal effect” value is on record as 5 (Herbicidal rate of 90% or more (almost completely withered)).

The record behind these values is patent US20230085307A1, “PYRIDAZINONE COMPOUND AND HERBICIDE” (NISSAN CHEMICAL CORPORATION, priority 2019, published 2023).
